From ChEMBL document CHEMBL4190187, “Discovery of pyrazolopyrimidine derivatives as novel inhibitors of ataxia telangiectasia and rad3 related protein (ATR)” (Bioorg Med Chem Lett, 2017)

Assays:
[1] = target: Discoidin domain-containing receptor 2 (Homo sapiens) (UniProt Q16832); test: Inhibition of recombinant human DDR2 (467 to end residues) at 1 uM using KKSRGDYMTMQIG as substrate after 40 mins in presence of [gamma-33P]ATP by scintillation counting method
[2] = target: Ephrin type-B receptor 2 (Homo sapiens) (UniProt P29323); test: Inhibition of recombinant human EPHB2 (560 to end residues) at 1 uM using poly(Glu,Tyr) 4:1 as substrate after 40 mins in presence of [gamma-33P]ATP by scintillation counting method
[3] = test system: Fibroblast growth factor receptor 2 (Homo sapiens), P21802 [N549H]; test: Inhibition of recombinant human FGFR2 N549H mutant (456 to 770 residues) at 1 uM using GGEEEEYFELVKKKK as substrate after 40 mins in presence of [gamma-33P]ATP by scintillation counting method
[4] = target: Mitogen-activated protein kinase kinase kinase kinase 2 (Homo sapiens) (UniProt Q12851); test: Inhibition of recombinant human GCK (1 to 473 residues) at 1 uM using myelin basic protein as substrate after 40 mins in presence of [gamma-33P]ATP by scintillation counting method
[5] = target: Tyrosine-protein kinase Lyn (Mus musculus) (UniProt P25911); test: Inhibition of recombinant full-length mouse Lyn at 1 uM using poly(Glu,Tyr) 4:1 as substrate after 40 mins in presence of [gamma-33P]ATP by scintillation counting method
[6] = target: Mitogen-activated protein kinase 1 (Mus musculus) (UniProt P63085); test: Inhibition of recombinant full-length mouse MAPK2 at 1 uM using myelin basic protein as substrate after 40 mins in presence of [gamma-33P]ATP by scintillation counting method
[7] = target: MAP kinase-interacting serine/threonine-protein kinase 2 (Homo sapiens) (UniProt Q9HBH9); test: Inhibition of recombinant full-length human Mnk2 at 1 uM using myelin basic protein as substrate after 40 mins in presence of [gamma-33P]ATP by scintillation counting method
[8] = target: Serine/threonine-protein kinase 26 (Homo sapiens) (UniProt Q9P289); test: Inhibition of recombinant human MST4 (4 to 304 residues) at 1 uM using RLGRDKYKTLRQIRQ as substrate after 40 mins in presence of [gamma-33P]ATP by scintillation counting method
[9] = target: Serine/threonine-protein kinase Nek11 (Homo sapiens) (UniProt Q8NG66); test: Inhibition of recombinant full-length human NEK11 at 1 uM using myelin basic protein as substrate after 40 mins in presence of [gamma-33P]ATP by scintillation counting method
[10] = target: Serine/threonine-protein kinase NLK (Homo sapiens) (UniProt Q9UBE8); test: Inhibition of recombinant human NLK (121 to end residues) at 1 uM using myelin basic protein as substrate after 40 mins in presence of [gamma-33P]ATP by scintillation counting method
[11] = target: NUAK family SNF1-like kinase 2 (Homo sapiens) (UniProt Q9H093); test: Inhibition of recombinant full-length human NUAK2 at 1 uM using KKKVSRSGLYRSPSMPENLNRPR as substrate after 40 mins in presence of [gamma-33P]ATP by scintillation counting method
[12] = target: Platelet-derived growth factor receptor beta (Homo sapiens) (UniProt P09619); test: Inhibition of recombinant human PDGFRbeta (557 to end residues) at 1 uM using poly(Glu,Tyr) 4:1 as substrate after 40 mins in presence of [gamma-33P]ATP by scintillation counting method
[13] = target: Eukaryotic translation initiation factor 2-alpha kinase 3 (Homo sapiens) (UniProt Q9NZJ5); test: Inhibition of recombinant human PEK (536 to end residues) at 1 uM using RSRSRSRSRSRSRSR as substrate after 40 mins in presence of [gamma-33P]ATP by scintillation counting method
[14] = target: Phosphatidylinositol 4-phosphate 3-kinase C2 domain-containing subunit alpha (Homo sapiens) (UniProt O00443); test: Inhibition of recombinant human PI3KC2alpha (299 to end residues) at 1 uM phosphatidylinositol/phosphatidylserine as substrate after 40 mins in presence of [gamma-33P]ATP by scintillation counting method
[15] = target: Interferon-induced, double-stranded RNA-activated protein kinase (Homo sapiens) (UniProt P19525); test: Inhibition of recombinant human PKR (501 to end residues) at 1 uM using AKRRRLSSLRA as substrate after 40 mins in presence of [gamma-33P]ATP by scintillation counting method
[16] = target: Serine/threonine-protein kinase PLK3 (Homo sapiens) (UniProt Q9H4B4); test: Inhibition of recombinant human Plk3 (19 to 301 residues) at 1 uM using casein as substrate after 40 mins in presence of [gamma-33P]ATP by scintillation counting method
[17] = target: Serine/threonine-protein kinase N1 (Homo sapiens) (UniProt Q16512); test: Inhibition of recombinant human PRK1 (498 to end residues) at 1 uM using KKLNRTLSFAEPG as substrate after 40 mins in presence of [gamma-33P]ATP by scintillation counting method
[18] = target: cAMP-dependent protein kinase catalytic subunit PRKX (Homo sapiens) (UniProt P51817); test: Inhibition of recombinant full-length human PRKX at 1 uM using RRRLSFAEPG as substrate after 40 mins in presence of [gamma-33P]ATP by scintillation counting method
[19] = test system: Proto-oncogene tyrosine-protein kinase receptor Ret (Homo sapiens), P07949 [V804L]; test: Inhibition of recombinant human RET V804L mutant (658 to end residues) at 1 uM using KKKVSRSGLYRSPSMPENLNRPR as substrate after 40 mins in presence of [gamma-33P]ATP by scintillation counting method
[20] = target: Ribosomal protein S6 kinase alpha-3 (Homo sapiens) (UniProt P51812); test: Inhibition of recombinant human Rsk2 (2 to end residues) at 1 uM using KKKNRTLSVA as substrate after 40 mins in presence of [gamma-33P]ATP by scintillation counting method
[21] = target: Serine/threonine-protein kinase SIK2 (Homo sapiens) (UniProt Q9H0K1); test: Inhibition of recombinant human SIK2 (1 to 276 residues) at 1 uM using KKKVSRSGLYRSPSMPENLNRPR as substrate after 40 mins in presence of [gamma-33P]ATP by scintillation counting method
[22] = test system: Angiopoietin-1 receptor (Homo sapiens), Q02763 [Y897S]; test: Inhibition of recombinant activated human Tie2 Y897S mutant (771 to end residues) at 1 uM using EFPIYDFLPAKKK as substrate after 40 mins in presence of [gamma-33P]ATP by scintillation counting method
[23] = target: Serine/threonine-protein kinase ATR (Homo sapiens, UniProt Q13535); test: Inhibition of recombinant full-length human ATR at 10 uM using GST-cMyc-p53 as substrate after 40 mins in presence of [gamma-33P]ATP by scintillation counting method

Sequence of Angiopoietin-1 receptor (Homo sapiens), Q02763 [Y897S] (Q02763 whole entry Y897S): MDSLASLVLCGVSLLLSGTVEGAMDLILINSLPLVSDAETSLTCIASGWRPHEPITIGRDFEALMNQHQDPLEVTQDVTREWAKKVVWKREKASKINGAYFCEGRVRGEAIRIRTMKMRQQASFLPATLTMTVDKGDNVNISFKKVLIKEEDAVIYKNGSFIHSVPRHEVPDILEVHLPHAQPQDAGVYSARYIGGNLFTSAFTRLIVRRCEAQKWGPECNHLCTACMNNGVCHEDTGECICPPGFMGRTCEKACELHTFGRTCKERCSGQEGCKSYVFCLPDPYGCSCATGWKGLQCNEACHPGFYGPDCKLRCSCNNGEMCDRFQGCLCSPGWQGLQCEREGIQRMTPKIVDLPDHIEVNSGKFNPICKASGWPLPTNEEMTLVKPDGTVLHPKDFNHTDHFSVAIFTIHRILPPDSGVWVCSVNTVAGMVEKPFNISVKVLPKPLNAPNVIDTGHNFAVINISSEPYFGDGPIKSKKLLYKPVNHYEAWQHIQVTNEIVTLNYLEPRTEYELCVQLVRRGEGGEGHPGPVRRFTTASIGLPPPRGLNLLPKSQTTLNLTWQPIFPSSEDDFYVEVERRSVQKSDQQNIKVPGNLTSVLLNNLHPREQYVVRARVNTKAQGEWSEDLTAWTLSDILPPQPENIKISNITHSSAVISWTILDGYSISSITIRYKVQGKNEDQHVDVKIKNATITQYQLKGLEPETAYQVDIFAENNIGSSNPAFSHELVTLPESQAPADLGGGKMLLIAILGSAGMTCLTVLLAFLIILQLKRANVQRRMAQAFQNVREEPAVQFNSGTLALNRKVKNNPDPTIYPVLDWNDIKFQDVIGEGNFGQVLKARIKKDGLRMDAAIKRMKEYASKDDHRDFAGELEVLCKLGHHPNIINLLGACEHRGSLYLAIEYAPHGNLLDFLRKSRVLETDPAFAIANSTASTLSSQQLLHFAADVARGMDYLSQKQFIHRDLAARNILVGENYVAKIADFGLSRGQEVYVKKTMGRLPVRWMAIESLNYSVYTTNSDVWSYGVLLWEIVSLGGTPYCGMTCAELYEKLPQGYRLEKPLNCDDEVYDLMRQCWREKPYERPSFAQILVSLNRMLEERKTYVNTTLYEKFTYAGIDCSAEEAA
Sequence of Serine/threonine-protein kinase SIK2 (Homo sapiens) (Q9H0K1 whole entry, looked up, the tested form may be a part): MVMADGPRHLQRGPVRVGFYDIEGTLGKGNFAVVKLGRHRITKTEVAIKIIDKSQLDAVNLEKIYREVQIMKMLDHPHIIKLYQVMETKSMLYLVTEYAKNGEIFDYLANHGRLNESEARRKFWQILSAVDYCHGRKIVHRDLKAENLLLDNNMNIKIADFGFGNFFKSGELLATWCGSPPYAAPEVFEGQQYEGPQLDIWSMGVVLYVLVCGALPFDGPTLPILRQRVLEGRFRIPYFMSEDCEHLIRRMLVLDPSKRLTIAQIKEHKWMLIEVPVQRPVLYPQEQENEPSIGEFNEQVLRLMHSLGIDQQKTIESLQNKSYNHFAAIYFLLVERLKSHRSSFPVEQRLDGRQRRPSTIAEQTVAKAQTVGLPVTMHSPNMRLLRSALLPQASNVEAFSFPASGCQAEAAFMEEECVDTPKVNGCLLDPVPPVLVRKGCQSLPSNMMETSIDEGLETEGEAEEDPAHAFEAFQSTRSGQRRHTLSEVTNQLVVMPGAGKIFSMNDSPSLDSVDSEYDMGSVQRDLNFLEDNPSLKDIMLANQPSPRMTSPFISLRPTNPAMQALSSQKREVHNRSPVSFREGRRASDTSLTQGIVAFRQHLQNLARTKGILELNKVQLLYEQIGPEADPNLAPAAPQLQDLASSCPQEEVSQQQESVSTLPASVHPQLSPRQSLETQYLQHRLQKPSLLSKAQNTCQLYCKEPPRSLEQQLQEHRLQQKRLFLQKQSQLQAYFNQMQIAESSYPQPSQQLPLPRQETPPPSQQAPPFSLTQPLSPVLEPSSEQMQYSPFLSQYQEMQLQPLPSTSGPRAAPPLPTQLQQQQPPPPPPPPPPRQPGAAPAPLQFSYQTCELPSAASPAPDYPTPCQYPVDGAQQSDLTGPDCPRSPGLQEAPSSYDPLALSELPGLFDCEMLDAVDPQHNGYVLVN
Sequence of Fibroblast growth factor receptor 2 (Homo sapiens), P21802 [N549H] (P21802 whole entry N549H, the tested form may be a part): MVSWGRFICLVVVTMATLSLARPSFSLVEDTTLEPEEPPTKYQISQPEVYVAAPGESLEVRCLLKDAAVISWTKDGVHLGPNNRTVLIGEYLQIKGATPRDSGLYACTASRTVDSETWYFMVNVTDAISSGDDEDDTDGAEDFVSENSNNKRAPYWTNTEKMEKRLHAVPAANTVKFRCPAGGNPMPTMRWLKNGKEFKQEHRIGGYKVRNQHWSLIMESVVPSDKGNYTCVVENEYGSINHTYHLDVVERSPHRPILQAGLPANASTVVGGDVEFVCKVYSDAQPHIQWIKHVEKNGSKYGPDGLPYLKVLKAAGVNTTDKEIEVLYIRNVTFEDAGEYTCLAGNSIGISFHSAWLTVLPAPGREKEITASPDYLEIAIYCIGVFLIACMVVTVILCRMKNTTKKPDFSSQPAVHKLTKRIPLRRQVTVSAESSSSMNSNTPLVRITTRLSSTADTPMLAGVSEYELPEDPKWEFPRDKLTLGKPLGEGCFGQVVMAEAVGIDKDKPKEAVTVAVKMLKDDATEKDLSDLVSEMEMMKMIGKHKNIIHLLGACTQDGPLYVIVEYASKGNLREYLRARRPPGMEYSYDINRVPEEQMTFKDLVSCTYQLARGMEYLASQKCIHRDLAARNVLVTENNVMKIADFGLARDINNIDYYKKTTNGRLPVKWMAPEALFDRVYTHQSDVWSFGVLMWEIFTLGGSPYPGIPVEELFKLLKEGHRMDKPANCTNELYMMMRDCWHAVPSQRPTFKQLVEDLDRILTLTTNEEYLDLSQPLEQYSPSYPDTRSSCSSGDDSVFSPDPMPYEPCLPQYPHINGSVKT
Sequence of Serine/threonine-protein kinase NLK (Homo sapiens) (Q9UBE8 whole entry): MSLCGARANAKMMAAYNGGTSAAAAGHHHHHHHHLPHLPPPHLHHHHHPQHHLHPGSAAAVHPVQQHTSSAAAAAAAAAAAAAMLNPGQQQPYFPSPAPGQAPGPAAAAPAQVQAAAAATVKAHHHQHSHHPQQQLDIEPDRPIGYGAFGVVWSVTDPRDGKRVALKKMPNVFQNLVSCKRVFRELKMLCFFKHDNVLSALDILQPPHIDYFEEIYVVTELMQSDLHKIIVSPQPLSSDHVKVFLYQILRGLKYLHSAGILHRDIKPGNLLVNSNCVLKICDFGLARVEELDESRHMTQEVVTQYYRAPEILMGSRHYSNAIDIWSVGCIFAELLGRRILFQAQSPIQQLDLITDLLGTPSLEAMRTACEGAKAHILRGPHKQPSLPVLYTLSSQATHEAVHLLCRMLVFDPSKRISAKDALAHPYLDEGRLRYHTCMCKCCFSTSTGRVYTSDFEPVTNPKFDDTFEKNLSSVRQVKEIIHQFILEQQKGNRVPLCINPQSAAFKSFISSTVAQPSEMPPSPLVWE
Sequence of Ribosomal protein S6 kinase alpha-3 (Homo sapiens) (P51812 whole entry, the tested form may be a part): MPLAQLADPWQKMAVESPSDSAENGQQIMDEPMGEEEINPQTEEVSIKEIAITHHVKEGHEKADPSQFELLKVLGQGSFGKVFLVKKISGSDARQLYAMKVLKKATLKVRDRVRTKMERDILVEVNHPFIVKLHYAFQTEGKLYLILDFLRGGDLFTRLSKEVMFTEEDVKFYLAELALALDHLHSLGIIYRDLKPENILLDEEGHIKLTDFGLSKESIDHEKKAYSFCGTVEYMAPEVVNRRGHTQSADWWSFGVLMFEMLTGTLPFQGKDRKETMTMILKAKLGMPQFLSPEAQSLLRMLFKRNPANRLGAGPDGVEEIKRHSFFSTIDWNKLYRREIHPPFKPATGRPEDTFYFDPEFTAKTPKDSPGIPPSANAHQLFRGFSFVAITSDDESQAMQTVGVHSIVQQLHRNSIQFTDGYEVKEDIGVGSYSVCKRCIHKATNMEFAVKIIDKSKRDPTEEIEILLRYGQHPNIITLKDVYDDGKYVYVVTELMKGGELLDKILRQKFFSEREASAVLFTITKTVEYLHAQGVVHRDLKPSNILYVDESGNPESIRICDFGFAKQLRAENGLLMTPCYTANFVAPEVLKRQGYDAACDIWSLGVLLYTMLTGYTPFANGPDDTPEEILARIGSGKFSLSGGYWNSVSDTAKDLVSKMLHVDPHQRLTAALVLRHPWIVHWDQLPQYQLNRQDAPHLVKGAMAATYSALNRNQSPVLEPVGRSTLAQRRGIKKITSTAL
Sequence of Serine/threonine-protein kinase PLK3 (Homo sapiens) (Q9H4B4 whole entry, looked up, the tested form may be a part): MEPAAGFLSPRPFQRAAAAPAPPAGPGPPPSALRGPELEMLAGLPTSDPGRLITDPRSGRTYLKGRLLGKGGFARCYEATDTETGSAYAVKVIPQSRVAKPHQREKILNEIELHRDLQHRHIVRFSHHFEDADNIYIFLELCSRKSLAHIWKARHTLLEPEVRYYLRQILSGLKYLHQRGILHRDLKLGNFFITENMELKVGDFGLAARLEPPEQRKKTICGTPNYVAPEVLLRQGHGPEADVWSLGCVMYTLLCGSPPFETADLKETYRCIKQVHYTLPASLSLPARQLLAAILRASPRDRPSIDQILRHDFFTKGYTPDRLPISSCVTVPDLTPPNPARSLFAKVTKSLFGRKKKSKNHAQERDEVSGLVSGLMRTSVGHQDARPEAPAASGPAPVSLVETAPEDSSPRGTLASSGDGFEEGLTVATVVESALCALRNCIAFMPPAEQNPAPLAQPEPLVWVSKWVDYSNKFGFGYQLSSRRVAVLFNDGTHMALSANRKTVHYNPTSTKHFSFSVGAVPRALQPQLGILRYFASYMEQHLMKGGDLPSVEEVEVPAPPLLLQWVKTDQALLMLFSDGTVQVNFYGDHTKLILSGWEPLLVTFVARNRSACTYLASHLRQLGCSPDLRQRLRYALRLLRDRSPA

Structure (SMILES): CS(=O)(=O)c1ccc(-n2nc(-c3cnc4[nH]ccc4c3)c3c(N)ncnc32)cc1
- inhibition [1]: 4%
- inhibition [2]: 2%
- inhibition [3]: 70%
- inhibition [4]: 52%
- inhibition [5]: 45%
- inhibition [6]: 1%
- inhibition [7]: -6%
- inhibition [8]: -3%
- inhibition [9]: 19%
- inhibition [10]: 18%
- inhibition [11]: 18%
- inhibition [12]: -7%
- inhibition [13]: 13%
- inhibition [14]: 23%
- inhibition [15]: 13%
- inhibition [16]: 3%
- inhibition [17]: -1%
- inhibition [18]: -4%
- inhibition [19]: 20%
- inhibition [20]: -5%
- inhibition [21]: 21%
- inhibition [22]: 1%
- inhibition [23]: 106%
